# Source: ChEMBL document CHEMBL1201862, “PubChem BioAssay data set” (2004)
# Activity calls are given as the source filed them.
# Columns and labels:
# [1] = cytotoxicity toward NIH3T3 fibroblasts, dose response, counter-screen, cell-based, ATP luminescence, mouse fibroblasts (AID 2010); format: functional;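 also: cells exposed to compound for about 90 hours before reading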
# [2] = inhibitors of intracellular T. cruzi replication, confirmation, NIH3T3 host cells, beta-gal luminescence (AID 2044); format: functional, cell-based;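 also: intracellular parasites grown in NIH/3T3 mouse fibroblasts as host cells; luminescent beta-galactosidase reporter signal from transgenic T. cruzi replicating inside host cells; inhibitors lower the luminescence signal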
# [3] = target: T1, Streptokinase A (Streptococcus pyogenes serotype M1, UniProt P10520); assay: S. pyogenes streptokinase expression inhibitors, potency, dose response, plasminogen activation absorbance, OD405 (AID 1914); format: functional, Streptococcus pyogenes M1 GAS;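 also: secreted streptokinase activity via plasminogen activation per viability signal from cell pellet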
# T1 sequence (P10520 whole entry): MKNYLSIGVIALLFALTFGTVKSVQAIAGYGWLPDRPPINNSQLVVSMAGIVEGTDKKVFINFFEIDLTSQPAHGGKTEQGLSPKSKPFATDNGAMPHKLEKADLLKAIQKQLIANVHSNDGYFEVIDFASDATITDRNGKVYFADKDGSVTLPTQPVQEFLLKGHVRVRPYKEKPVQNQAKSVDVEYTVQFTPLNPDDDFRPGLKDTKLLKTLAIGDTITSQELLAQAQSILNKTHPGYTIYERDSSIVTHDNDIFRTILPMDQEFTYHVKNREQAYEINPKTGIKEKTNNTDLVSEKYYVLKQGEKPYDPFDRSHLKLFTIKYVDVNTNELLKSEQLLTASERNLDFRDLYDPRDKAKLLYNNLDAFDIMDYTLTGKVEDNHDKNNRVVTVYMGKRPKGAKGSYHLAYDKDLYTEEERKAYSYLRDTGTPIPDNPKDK
# [4] = test system: Streptococcus; assay: Group A Streptococcus viability loss, dose response, counter-screen for streptokinase expression inhibitor project, luminescence, BacTiterGlo (AID 1915); format: functional, organism-based;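 also: potency for reduction of bacterial viability or growth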
# [5] = test system: Streptococcus sp. 'group A'; assay: growth inhibition of control SK(-) GAS strain, dose response, counter-screen for streptokinase expression inhibitor project, luminescence, kanamycin, BacTiterGlo, confirmation (AID 1900); format: functional, organism-based
# [6] = target: Cytochrome P450 2C19 (Homo sapiens, UniProt P33261); assay: Cytochrome panel assay with activity outcomes. Panel member name: p450-cyp2c19 Compounds with AC50 equal or less than 10 uM are considered active; format: functional
# Sequence of Cytochrome P450 2C19 (P33261 whole entry): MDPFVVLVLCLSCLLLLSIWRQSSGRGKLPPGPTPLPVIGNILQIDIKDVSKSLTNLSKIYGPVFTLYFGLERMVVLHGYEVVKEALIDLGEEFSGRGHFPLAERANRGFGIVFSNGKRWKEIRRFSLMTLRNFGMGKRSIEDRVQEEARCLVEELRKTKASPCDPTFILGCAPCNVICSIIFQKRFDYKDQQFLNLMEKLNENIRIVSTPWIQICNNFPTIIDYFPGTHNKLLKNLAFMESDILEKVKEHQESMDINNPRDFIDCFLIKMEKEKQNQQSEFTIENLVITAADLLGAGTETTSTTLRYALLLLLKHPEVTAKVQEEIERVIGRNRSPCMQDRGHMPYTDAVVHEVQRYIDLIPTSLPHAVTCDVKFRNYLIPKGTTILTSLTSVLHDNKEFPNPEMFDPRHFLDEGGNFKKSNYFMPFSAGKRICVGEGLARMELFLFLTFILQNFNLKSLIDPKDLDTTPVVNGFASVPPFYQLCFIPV
SMILES,EC50 [1],EC50 [2],EC50 [3],EC50 [4],EC50 [5],also measured
Cc1sc(NC(=O)c2ccco2)c(CN2CCN(Cc3ccccc3)CC2)c1C,> 30 µM (not active),3.39 µM (active),,,,
C/C(=N\NC(=O)Cc1ccc(Cl)cc1)c1ccccc1O,10.8 µM (active),2.79 µM (active),,,,
CC(=O)c1ccc(NC(=O)CN2C(=O)/C(=C/C=C/c3ccccc3)SC2=S)cc1,,,> 150 µM (not active),> 150 µM (not active),,
Cc1c(C(=O)Nc2ccc(-c3nnc4n3CCCCC4)cc2)oc2ccc(Br)cc12,> 60 µM (not active),1.18 µM (active),,,,
CN(CCc1ccccn1)C1CCCN(S(=O)(=O)c2ccc(F)c(Cl)c2)C1 (centres undefined),> 60 µM (not active),1.2 µM (active),,,,
CC(Oc1ccccc1)C(=O)NC1C(=O)N2C1SC(C)(C)C2C(=O)O (centres undefined),,,,0.124 µM (active),0.11 µM (active),
COc1cc(/C=N/NC(=O)c2nnn(-c3nonc3N)c2C(C)C)ccc1OCc1ccc(F)cc1,,,13.4 µM (active),47 µM (active),8.61 µM (active),
NC(=O)NC(=O)CSc1nc2cc([N+](=O)[O-])ccc2n1-c1cccc(C(F)(F)F)c1,,,> 150 µM (not active),19.2 µM (active),0.301 µM (active),
Cc1ccc(S(=O)(=O)Cn2nnnc2C(C(C)C)N2CCN(c3nc4ccccc4s3)CC2)cc1 (centres undefined),> 60 µM (inconclusive),0.532 µM (active),,,,
C[C@@H](C(=O)NCCc1ccccc1)N1C(=O)N2CCc3c([nH]c4ccccc34)[C@@]2(C)C1=O,> 60 µM (not active),2 µM (active),,,,
CCn1c(S)nnc1CCNC(=O)c1ccc(Cl)cc1Cl,,,,,,AC50 ([6]; read-out: AC50): 10 µM (inconclusive)
O=C(C[n+]1ccc2ccccc2c1)Nc1cc(C(F)(F)F)ccc1Cl,,,> 150 µM (not active),> 150 µM (not active),> 150 µM (not active),
CC(C)C(=O)NC(=S)Nc1ccccc1N1CCN(C(=O)c2ccc(Cl)cc2)CC1,> 60 µM (not active),1.47 µM (active),,,,
COCC1CCN(Cc2c[nH]nc2-c2cc3ccccc3o2)C1 (centres undefined),> 60 µM (not active),0.76 µM (active),,,,
O=C(NC1CCN(Cc2ccccc2)CC1)c1ccccc1,10.8 µM (active),0.721 µM (active),,,,
CN1CCN(CC(O)COC(c2ccccc2)c2ccccc2)CC1 (centres undefined),> 30 µM (not active),1.3 µM (active),,,,
CC(C)Cc1nnc(NC(=O)c2ccc([N+](=O)[O-])cc2)s1,,,,,,AC50 [6]: inconclusive
Cc1cc(=O)oc2cc(O)c(CN(C)CC(=O)O)cc12,,,,,,AC50 [6]: inconclusive
C=CCN1C(=O)NC(=O)/C(=C(/C)Nc2ccc(N(CC)CC)cc2)C1=O,,,> 150 µM (not active),14 µM (active),5.15 µM (active),

SMILES,EC50 [1],EC50 [2],EC50 [3],EC50 [4],EC50 [5],also measured
CCOC(=O)c1c(NC(=O)CSc2nnnn2-c2ccccc2)sc2c1CC(C)(C)NC2(C)C,8.34 µM (active),0.831 µM (active),,,,
COC(=O)c1ccc(-c2nc(CN3CCN(Cc4cccc(C)c4)CC3)c(C)o2)cc1,> 60 µM (not active),0.164 µM (active),,,,
COC(=O)[C@@]1(Cc2ccc(F)cc2)[C@H]2c3cc(C(=O)N(C)C)n(CCSCCO)c3C[C@H]2CN1C(=O)c1ccccc1,,,,,,AC50 ([6]; read-out: AC50): 39.8 µM (inconclusive)
N#Cc1c(NC(=O)CSc2nnc(Cc3ccccc3)[nH]2)oc(-c2ccccc2)c1-c1ccccc1,,,4.54 µM (active),,,
COc1ccc(CNc2ccc(Cl)cc2)cc1Cn1ccnc1,> 60 µM (not active),0.114 µM (active),,,,
C/C(CC(=O)Nc1ccccn1)=N\NC(=O)C(=O)Nc1cccc(Cl)c1C,,,,,,AC50 ([6]; read-out: AC50): 11.2 µM (inconclusive)
COc1ccc(NS(=O)(=O)c2cccc(NC(=O)c3cnccn3)c2)cc1Br,> 60 µM (not active),1.79 µM (active),,,,
Cc1onc(-c2ccccc2)c1C(=O)NNC(=S)NC(=O)/C=C/c1cccs1,,,,2.02 µM (active),1.02 µM (active),
CC(C)(C)c1ccc(C(=O)Nc2ccc(F)cc2)s1,,,> 150 µM (not active),> 150 µM (not active),> 150 µM (not active),
Cc1nn(Cc2ccc(Cl)cc2Cl)c(Cl)c1/C=N/NC(=O)CNc1cccc(C(F)(F)F)c1,> 60 µM (inconclusive),2.62 µM (active),,,,
O=C(Nc1ccc2c(c1)N(S(=O)(=O)c1cccs1)CCC2)c1c(F)cccc1Cl,,,> 150 µM (not active),> 150 µM (not active),> 150 µM (not active),
CCCCNc1c(-c2ccc(-c3ccc(C(C)=O)cc3)c(OC)c2)nc2cnccn12,,,114 µM (inconclusive),21.1 µM (active),5.22 µM (active),
O=C(Nc1nc(N2C(=O)c3ccccc3C2=O)n(-c2ccccc2)n1)c1ccc(Cl)cc1,,,> 150 µM (not active),22.9 µM (active),8.84 µM (active),
CCCCN1C(=O)NC(=O)/C(=C(/CC)Nc2ccc3c(c2)CCC3)C1=O,,,74.1 µM (active),> 150 µM (not active),15.9 µM (active),
CC(=O)N1c2ccc(S(=O)(=O)N3CCC(C(=O)Nc4cc(C)ccn4)CC3)cc2CC1C (centres undefined),,,> 150 µM (not active),> 150 µM (not active),> 150 µM (not active),
CCOc1ccc(C(=O)NC(=S)Nc2ccc(N3CCOCC3)c(Cl)c2)cc1[N+](=O)[O-],,,> 150 µM (not active),21.4 µM (active),0.724 µM (active),
Cc1nn2c(O)cc(C(C)(C)C)nc2c1-c1ccccc1,4.17 µM (active),1.85 µM (active),,6.75 µM (active),2.71 µM (active),
CCc1ccc(N(CC(=O)NC2CC2)S(=O)(=O)c2ccc(C)cc2)cc1,,,> 150 µM (not active),> 150 µM (not active),> 150 µM (not active),
CC1CCN(CC(O)COCCC23CC4CC(CC(C4)C2)C3)CC1 (centres undefined),> 60 µM (not active),0.164 µM (active),,,,
